Patent US9101638B2, “Boronic acid derivatives and therapeutic uses thereof” (Rempex Pharmaceuticals, Inc., priority 2013, dated 2015)

Key:
ec302 (TEM-10) [1] = assay: Potentiation of aztreonam, strain ec302; format: cell-based
KP1005 (CTX-M-14) = assay: Potentiation of aztreonam, strain KP1005; format: cell-based
ec302 (TEM-10) [2] = assay: Potentiation of tigemonam, strain ec302; format: cell-based
KP1009 (CTX-M-15) [3] = assay: Potentiation of aztreonam, strain KP1009; format: cell-based
Thrombin = biological target: T1, Thrombin (Homo sapiens, UniProt P00734); assay: Serine protease inhibition: thrombin; format: biochemical, mammalian; conditions: Table 8A, class symbols; read-out: IC50 Thrombin
T1 construct: Thrombin; MPBio; 19491880; purchased MPBio 19491880
Method: (§1) The effect of selected BLIs on the enzymatic activity of some common mammalian serine proteases was evaluated.
(§2) 50 μl of the diluted enzyme was mixed with 50 μl of inhibitor at various concentrations and 50 μl of corresponding buffer (Table 7). Reaction mixtures were incubated for 10 min at 37° C. Subsequently, 50 μl of corresponding substrate (Table 7) was added and absorbance or fluorescence was monitored for 30 min on SpectraMax M2 plate reader (Molecular Devices). 4-(2-Aminoethyl)benzenesulfonyl fluoride hydrochloride (AEBSF) and leupeptin were used as positive controls. Rates of reaction were calculated and presented relative to “no treatment” control.

KP1009 (CTX-M-15) [4] = assay: Potentiation of tigemonam, strain KP1009; conditions: minimum BLI concentration inhibiting growth with 4 μg/mL tigemonam
CTX-M-14 = CTX-M-14 (Escherichia coli, UniProt Q9L5C7); assay: Inhibition of nitrocefin cleavage by purified CTX-M-14; format: biochemical; conditions: nitrocefin reporter substrate, purified enzyme; read-out: Ki (CTX-M-14, NCF)
Chain of CTX-M-14 (Q9L5C7 entry or part of it): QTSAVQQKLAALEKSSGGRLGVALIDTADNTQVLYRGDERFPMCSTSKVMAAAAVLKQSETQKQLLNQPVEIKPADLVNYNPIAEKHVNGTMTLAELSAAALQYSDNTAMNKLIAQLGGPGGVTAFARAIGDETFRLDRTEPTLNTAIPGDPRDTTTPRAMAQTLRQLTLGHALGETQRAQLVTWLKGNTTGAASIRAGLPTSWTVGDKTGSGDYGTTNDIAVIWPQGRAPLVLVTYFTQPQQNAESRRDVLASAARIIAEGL
Method: (§3) Purified enzymes were mixed with various concentrations of inhibitors in reaction buffer and incubated for 10 min at room temperature. Nitrocefin was added and substrate cleavage profiles were recorded at 490 nm every 10 sec for 10 min.

Neutrophil elastase = biological target: T2, Neutrophil elastase (Homo sapiens, UniProt P08246); assay: Serine protease inhibition: neutrophil elastase; format: biochemical, mammalian; conditions: Table 8B; read-out: IC50 Neutrophil elastase
T2 construct: purchased Calbiochem 324681
T2 sequence (P08246 30-267): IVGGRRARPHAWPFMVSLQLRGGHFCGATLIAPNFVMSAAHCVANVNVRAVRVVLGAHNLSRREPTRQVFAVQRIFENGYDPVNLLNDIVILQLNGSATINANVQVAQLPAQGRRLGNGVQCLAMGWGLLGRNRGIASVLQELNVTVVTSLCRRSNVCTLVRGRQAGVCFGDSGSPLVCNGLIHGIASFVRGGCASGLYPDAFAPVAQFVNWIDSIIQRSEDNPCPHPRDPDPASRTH
Method: as §1, §2

SHV-12 = SHV-12 (Klebsiella pneumoniae, UniProt P0AD64, E235K/G234S/L31Q); assay: Inhibition of nitrocefin cleavage by purified SHV-12; format: biochemical; conditions: nitrocefin reporter substrate, purified enzyme; read-out: Ki (SHV-12, NCF)
Chain of SHV-12 (P0AD64 22-286 L31Q/G234S/E235K): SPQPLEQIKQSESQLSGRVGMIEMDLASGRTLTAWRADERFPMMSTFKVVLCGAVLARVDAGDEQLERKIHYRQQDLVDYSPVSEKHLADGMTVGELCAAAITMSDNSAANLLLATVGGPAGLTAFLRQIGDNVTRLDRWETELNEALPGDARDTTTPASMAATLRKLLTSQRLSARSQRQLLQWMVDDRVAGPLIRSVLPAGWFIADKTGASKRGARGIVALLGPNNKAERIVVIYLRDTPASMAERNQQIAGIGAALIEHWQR
Outline: (§4)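 10 min RT preincubation, enzyme with inhibitor series in reaction buffer. Substrate nitrocefin; kinetic read 490 nm, 10 sec intervals, 10 min total.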

EC1010 (CMY-6) [5] = assay: Potentiation of aztreonam, strain EC1010; format: cell-based
CathepsinA = biological target: T3, CathepsinA (Homo sapiens, UniProt P10619); assay: Serine protease inhibition: cathepsin A; format: biochemical, mammalian; conditions: Table 8B; read-out: IC50 CathepsinA
T3 construct: purchased R&D Systems 1049-SE
T3 sequence (P10619 29-480): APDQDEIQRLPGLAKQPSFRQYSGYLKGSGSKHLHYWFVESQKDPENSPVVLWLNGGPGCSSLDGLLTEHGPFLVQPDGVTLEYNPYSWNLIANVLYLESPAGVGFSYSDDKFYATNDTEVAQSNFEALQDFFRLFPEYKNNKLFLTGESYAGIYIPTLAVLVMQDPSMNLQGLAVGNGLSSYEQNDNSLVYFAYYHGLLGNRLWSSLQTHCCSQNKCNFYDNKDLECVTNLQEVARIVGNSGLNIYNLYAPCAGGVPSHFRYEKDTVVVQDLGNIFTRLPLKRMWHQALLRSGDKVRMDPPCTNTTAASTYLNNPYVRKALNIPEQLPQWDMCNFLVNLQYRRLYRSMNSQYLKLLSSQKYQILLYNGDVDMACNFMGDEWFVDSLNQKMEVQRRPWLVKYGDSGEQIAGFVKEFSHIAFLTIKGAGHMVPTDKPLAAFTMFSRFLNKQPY
Method: as §1, §2

ec308 (SHV-5) [6] = assay: Potentiation of tigemonam, strain ec308; format: cell-based; conditions: minimum BLI concentration inhibiting growth with 4 μg/mL tigemonam
ECL1002 = assay: Potentiation of aztreonam, strain ECL1002; format: cell-based; conditions: minimum BLI concentration inhibiting growth with 4 μg/mL aztreonam
KP1004 (K-2) = assay: Potentiation of aztreonam, strain KP1004; format: cell-based; conditions: minimum BLI concentration inhibiting growth with 4 μg/mL aztreonam
ec308 (SHV-5) [7] = assay: Potentiation of aztreonam, strain ec308; format: cell-based; conditions: minimum BLI concentration inhibiting growth with 4 μg/mL aztreonam
KPC-2 = KPC-2 (Klebsiella pneumoniae, UniProt Q9F663); assay: Inhibition of nitrocefin cleavage by purified KPC-2; format: biochemical; conditions: nitrocefin reporter substrate, purified enzyme; read-out: Ki (KPC-2, NCF)
Chain of KPC-2 (Q9F663 25-293, looked up, species assumed): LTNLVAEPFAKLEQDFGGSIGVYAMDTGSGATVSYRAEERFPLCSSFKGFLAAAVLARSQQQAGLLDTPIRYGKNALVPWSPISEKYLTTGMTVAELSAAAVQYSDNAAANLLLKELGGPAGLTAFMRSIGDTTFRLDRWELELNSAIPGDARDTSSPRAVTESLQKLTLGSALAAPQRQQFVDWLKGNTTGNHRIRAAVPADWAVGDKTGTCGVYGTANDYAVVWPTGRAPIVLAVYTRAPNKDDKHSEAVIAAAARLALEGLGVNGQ
Outline: as §4

EC1010 (CMY-6) [8] = format: cell-based
CathepsinG = biological target: T4, CathepsinG (Homo sapiens, UniProt P08311); assay: Serine protease inhibition: cathepsin G; format: biochemical, mammalian; conditions: Table 8B
T4 construct: purchased EMD Millipore 219373
T4 sequence (P08311 21-244): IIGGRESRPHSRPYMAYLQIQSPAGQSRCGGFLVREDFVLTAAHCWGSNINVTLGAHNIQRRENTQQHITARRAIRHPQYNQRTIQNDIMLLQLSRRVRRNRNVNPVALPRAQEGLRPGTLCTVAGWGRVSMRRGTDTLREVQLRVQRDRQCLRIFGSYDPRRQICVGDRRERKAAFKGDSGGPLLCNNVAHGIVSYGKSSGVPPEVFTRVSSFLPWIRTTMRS
Method: as §1, §2

Chymase = biological target: T5, Chymase (Homo sapiens, UniProt P23946); assay: Serine protease inhibition: chymase; format: biochemical, mammalian; conditions: Table 8A, class symbols; read-out: IC50 Chymase
T5 construct: purchased Enzo Lifescience BML-SE281
T5 sequence (P23946 22-247): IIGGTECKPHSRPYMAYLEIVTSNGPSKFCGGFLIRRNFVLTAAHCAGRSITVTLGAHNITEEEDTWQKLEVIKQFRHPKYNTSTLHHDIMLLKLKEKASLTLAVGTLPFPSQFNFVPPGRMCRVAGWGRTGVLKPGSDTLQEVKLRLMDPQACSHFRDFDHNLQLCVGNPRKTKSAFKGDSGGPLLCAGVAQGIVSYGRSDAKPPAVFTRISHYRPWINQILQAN
Method: as §1, §2

[9] = biological target: T6, Dipeptidyl peptidase 9 (DPP9) (Homo sapiens, UniProt Q86TI2); assay: Serine protease inhibition: DPP9; format: biochemical, mammalian; conditions: Table 8B; read-out: IC50 DPP9
T6 construct: purchased BPS Bioscience 80090
T6 sequence (Q86TI2 whole entry): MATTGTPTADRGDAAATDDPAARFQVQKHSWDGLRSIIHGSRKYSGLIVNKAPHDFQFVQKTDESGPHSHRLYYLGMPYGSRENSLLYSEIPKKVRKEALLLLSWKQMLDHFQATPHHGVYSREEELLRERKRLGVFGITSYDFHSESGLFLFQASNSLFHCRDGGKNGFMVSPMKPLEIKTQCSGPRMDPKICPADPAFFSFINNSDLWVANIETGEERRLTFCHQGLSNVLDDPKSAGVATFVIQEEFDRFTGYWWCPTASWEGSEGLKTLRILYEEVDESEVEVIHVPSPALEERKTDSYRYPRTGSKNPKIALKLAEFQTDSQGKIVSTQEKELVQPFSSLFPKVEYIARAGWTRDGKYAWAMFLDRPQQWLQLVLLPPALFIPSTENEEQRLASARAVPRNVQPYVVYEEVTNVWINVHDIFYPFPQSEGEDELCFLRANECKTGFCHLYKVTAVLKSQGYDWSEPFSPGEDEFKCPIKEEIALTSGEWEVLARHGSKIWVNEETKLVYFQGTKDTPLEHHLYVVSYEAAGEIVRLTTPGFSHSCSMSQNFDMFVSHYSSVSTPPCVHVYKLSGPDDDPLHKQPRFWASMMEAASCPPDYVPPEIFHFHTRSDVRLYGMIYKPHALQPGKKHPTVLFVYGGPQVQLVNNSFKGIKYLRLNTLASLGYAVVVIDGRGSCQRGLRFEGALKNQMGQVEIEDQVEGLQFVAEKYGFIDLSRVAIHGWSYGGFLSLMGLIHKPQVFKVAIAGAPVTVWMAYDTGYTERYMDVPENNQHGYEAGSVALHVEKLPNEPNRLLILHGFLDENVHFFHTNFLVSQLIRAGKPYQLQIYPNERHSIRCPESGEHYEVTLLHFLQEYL
Method: as §1, §2

Chymotrypsin = biological target: T7, Chymotrypsin (Bos taurus, UniProt P00766); assay: Serine protease inhibition: chymotrypsin; format: biochemical, mammalian; conditions: Table 8A, class symbols; read-out: IC50 Chymotrypsin
T7 construct: purchased Calbiochem 230832
Method: as §1, §2

[10] = biological target: T8, Dipeptidyl peptidase 8 (DPP8) (Homo sapiens, UniProt Q6V1X1); assay: Serine protease inhibition: DPP8; format: biochemical, mammalian; conditions: Table 8B; read-out: IC50 DPP8
T8 construct: purchased BPS Bioscience 80080
T8 sequence (Q6V1X1 whole entry): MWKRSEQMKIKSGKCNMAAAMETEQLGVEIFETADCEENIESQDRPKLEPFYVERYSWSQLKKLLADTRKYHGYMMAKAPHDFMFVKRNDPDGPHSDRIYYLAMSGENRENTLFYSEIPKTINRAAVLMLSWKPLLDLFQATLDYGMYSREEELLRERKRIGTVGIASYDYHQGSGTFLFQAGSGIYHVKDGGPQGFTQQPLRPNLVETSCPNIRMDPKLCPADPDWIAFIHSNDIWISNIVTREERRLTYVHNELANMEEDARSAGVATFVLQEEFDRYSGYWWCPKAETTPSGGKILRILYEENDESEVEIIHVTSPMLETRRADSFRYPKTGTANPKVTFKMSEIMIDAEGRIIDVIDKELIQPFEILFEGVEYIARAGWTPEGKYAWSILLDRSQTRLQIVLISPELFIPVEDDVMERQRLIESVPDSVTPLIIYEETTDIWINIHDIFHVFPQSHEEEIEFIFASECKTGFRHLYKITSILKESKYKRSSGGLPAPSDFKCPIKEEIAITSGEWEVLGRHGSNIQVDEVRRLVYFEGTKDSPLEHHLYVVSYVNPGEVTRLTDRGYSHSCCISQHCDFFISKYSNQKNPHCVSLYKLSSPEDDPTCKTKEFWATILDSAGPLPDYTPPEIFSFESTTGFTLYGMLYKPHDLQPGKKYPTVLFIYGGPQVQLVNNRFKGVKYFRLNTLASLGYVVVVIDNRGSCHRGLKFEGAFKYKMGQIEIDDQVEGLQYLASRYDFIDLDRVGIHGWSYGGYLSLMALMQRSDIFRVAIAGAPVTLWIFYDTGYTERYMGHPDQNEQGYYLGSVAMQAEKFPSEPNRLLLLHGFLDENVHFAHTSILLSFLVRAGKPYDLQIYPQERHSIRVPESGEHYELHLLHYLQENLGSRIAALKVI
Method: as §1, §2

PAM1032/KPC-2 = assay: Biapenem potentiation in PAM1032/KPC-2 (MexAB-OprM overexpressed); format: cell-based, Pseudomonas aeruginosa; conditions: BLI potency to decrease biapenem MIC 64-fold, 32 to 0.5 μg/ml; efflux proficient strain
Method: (§5) Efflux of BLIs from Pseudomonas aeruginosa by the MexAB-OprM efflux pump was also evaluated. […] Due to expression of KPC-2 both strains became resistant to biapenem. […] Potency of BLIs to potentiate biapenem in these strains was determined. […] The ratio of MPC64 values for each BLI in PAM1032/KPC-2 (efflux proficient) and PAM1154/KPC-2 (efflux deficient) was determined to generate the Efflux Index (EI).

OXA-48 = OXA-48 (Klebsiella pneumoniae, UniProt Q6XEC0); assay: Inhibition of nitrocefin cleavage by purified OXA-48; format: biochemical; conditions: nitrocefin reporter substrate, purified enzyme; read-out: Ki (OXA-48, NCF)
Chain of OXA-48 (Q6XEC0 23-265 limits assumed): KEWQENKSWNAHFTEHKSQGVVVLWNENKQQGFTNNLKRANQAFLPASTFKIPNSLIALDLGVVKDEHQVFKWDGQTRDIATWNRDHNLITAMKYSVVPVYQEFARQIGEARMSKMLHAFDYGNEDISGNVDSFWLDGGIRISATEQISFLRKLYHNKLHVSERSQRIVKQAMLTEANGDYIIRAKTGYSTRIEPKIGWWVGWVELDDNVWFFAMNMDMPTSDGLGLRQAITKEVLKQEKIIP
Method: as §3

PAM1154/KPC-2 = assay: Biapenem potentiation in PAM1154/KPC-2 (MexAB-OprM lacking); format: cell-based, Pseudomonas aeruginosa
Method: as §5

P99 = P99 (Enterobacter cloacae, UniProt P05364); assay: Inhibition of nitrocefin cleavage by purified P99; format: biochemical; conditions: nitrocefin reporter substrate, purified enzyme; read-out: Ki (P99, NCF)
Chain of P99 (P05364 21-381): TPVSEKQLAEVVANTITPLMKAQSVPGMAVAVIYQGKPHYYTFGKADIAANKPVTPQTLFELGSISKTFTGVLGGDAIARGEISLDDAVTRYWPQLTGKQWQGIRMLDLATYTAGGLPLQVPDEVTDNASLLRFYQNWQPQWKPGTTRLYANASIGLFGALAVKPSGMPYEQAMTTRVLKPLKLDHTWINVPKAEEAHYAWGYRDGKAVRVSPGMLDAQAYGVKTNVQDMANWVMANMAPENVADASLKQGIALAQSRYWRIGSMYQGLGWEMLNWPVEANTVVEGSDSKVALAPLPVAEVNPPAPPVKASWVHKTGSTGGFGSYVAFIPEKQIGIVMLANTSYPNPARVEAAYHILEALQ
Method: as §3

| SMILES | AZT MPC4 TEM-10 ec302 (ec302 (TEM-10) [1]) | AZT MPC4 CTX-M-14 KP1005 (KP1005 (CTX-M-14)) | TIG MPC4 TEM-10 ec302 (ec302 (TEM-10) [2]) | AZT MPC4 CTX-M-15 KP1009 (KP1009 (CTX-M-15) [3]) | TIG MPC4 CTX-M-15 KP1009 (KP1009 (CTX-M-15) [4]) | Ki (CTX-M-14) [µM] | Ki (SHV-12) [µM] | AZT MPC4 CMY-6 EC1010 (EC1010 (CMY-6) [5]) | IC50 (CathepsinA) [µM] | TIG MPC4 SHV-5 ec308 (ec308 (SHV-5) [6]) | AZT MPC4 ECL1002 (ECL1002) | AZT MPC4 K-2 KP1004 (KP1004 (K-2)) | AZT MPC4 SHV-5 ec308 (ec308 (SHV-5) [7]) | TIG MPC4 CMY-6 EC1010 (EC1010 (CMY-6) [8]) | IC50 (CathepsinG) [µM] | further results |
| --- | --- | --- | --- | --- | --- | --- | --- | --- | --- | --- | --- | --- | --- | --- | --- | --- |
| O=C(COCc1ccccc1)N[C@H]1Cc2cccc(C(=O)O)c2OB1O [CPD B, reference compound] | Z (key: X = MIC of less than 1 μg/mL; Y = MIC of 1 μg/mL to 10 μg/mL; Z = MIC of greater than 10 μg/mL) | Z (key: X = MIC of less than 1 μg/mL; Y = MIC of 1 μg/mL to 10 μg/mL; Z = MIC of greater than 10 μg/mL) | Z (key: X = MIC of less than 1 μg/mL; Y = MIC of 1 μg/mL to 10 μg/mL; Z = MIC of greater than 10 μg/mL) | Z (key: X = MIC of less than 1 μg/mL; Y = MIC of 1 μg/mL to 10 μg/mL; Z = MIC of greater than 10 μg/mL) | Z (Z = MIC of greater than 10 μg/mL) | < 0.001 | < 0.001 | Z (key: X = MIC of less than 1 μg/mL; Y = MIC of 1 μg/mL to 10 μg/mL; Z = MIC of greater than 10 μg/mL) | 15 to 500 | Y (Y = MIC of 1 μg/mL to 10 μg/mL) | Z (Z = MIC of greater than 10 μg/mL) | Z (Z = MIC of greater than 10 μg/mL) | Y (Y = MIC of 1 μg/mL to 10 μg/mL) | Y (key: X = MIC of less than 1 μg/mL; Y = MIC of 1 μg/mL to 10 μg/mL; Z = MIC of greater than 10 μg/mL) | 15 to 500 | IC50 (Thrombin): > 800 µM; IC50 (Neutrophil elastase): > 500 µM; Ki (KPC-2): > 0.01 µM; IC50 (Chymase): 300 to 800 µM; IC50 [9]: > 500 µM; IC50 (Chymotrypsin): > 800 µM; IC50 [10]: 15 to 500 µM |
| O=C(N[C@H]1Cc2cccc(C(=O)O)c2OB1O)c1cccnc1 [Compound 12, (R)-2-hydroxy-3-(nicotinamido)-3,4-dihydro-2H-benzo[e][1,2]oxaborinine-8-carboxylic acid] | X (key: X = MIC of less than 1 μg/mL; Y = MIC of 1 μg/mL to 10 μg/mL; Z = MIC of greater than 10 μg/mL) | Y (key: X = MIC of less than 1 μg/mL; Y = MIC of 1 μg/mL to 10 μg/mL; Z = MIC of greater than 10 μg/mL) | Y (key: X = MIC of less than 1 μg/mL; Y = MIC of 1 μg/mL to 10 μg/mL; Z = MIC of greater than 10 μg/mL) | Y (key: X = MIC of less than 1 μg/mL; Y = MIC of 1 μg/mL to 10 μg/mL; Z = MIC of greater than 10 μg/mL) | Y (Y = MIC of 1 μg/mL to 10 μg/mL) | < 0.001 | < 0.001 | Y (key: X = MIC of less than 1 μg/mL; Y = MIC of 1 μg/mL to 10 μg/mL; Z = MIC of greater than 10 μg/mL) | 15 to 500 | Y (Y = MIC of 1 μg/mL to 10 μg/mL) | X (X = MIC of less than 1 μg/mL) | Y (Y = MIC of 1 μg/mL to 10 μg/mL) | Y (Y = MIC of 1 μg/mL to 10 μg/mL) | Y (key: X = MIC of less than 1 μg/mL; Y = MIC of 1 μg/mL to 10 μg/mL; Z = MIC of greater than 10 μg/mL) | < 15 | PAM1032/KPC-2 Biapenem MPC64 (PAM1032/KPC-2): Z (Z Greater than 40); Ki (OXA-48): < 0.001 µM; PAM1154/KPC-2 Biapenem MPC64 (PAM1154/KPC-2): X (key: X = Less than 10; Y = 10 to 40; Z Greater than 40); Ki (P99): < 0.001 µM |
